Consider 2 compounds from BindingDB's records for doi:10.1021/acs.jmedchem.0c02069 (Indiana University, 2021).

The structures appear in SMILES notation. Peptide text beside a SMILES is read from it.

The target of the experiment is Glucagon receptor (Homo sapiens, UniProt P47871). The experiment in a line: Displacement of 125I-glucagon from human GCGR expressed in HEK293 cells membranes incubated for 6 hrs by liquid scintillation counting method.
Sequence of Glucagon receptor (P47871 whole entry): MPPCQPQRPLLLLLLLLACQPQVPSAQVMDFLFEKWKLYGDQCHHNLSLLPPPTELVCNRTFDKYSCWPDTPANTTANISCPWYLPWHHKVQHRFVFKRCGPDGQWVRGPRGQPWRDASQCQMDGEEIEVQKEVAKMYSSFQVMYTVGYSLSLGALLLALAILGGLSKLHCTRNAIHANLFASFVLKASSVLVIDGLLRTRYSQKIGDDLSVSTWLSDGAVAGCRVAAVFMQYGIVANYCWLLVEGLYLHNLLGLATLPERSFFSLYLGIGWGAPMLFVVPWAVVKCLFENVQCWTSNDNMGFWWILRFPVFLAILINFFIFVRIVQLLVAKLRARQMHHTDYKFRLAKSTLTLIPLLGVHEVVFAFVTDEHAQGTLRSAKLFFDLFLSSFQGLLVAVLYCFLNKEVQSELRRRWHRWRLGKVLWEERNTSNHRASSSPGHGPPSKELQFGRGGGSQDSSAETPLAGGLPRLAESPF

`CSCC[C@H](NC(=O)[C@H](CC(C)C)NC(=O)[C@H](Cc1c[nH]c2ccccc12)NC(=O)[C@H](CCC(N)=O)NC(=O)[C@@H](NC(=O)[C@H](Cc1ccccc1)NC(=O)[C@H](CC(=O)O)NC(=O)[C@H](CCC(N)=O)NC(=O)[C@H](C)NC(=O)[C@H](CCCNC(=N)N)NC(=O)[C@H](CCCNC(=N)N)NC(=O)[C@H](CO)NC(=O)[C@H](CC(=O)O)NC(=O)[C@H](CC(C)C)NC(=O)[C@H](Cc1ccc(O)cc1)NC(=O)[C@H](CCCCN)NC(=O)[C@H](CO)NC(=O)[C@H](Cc1ccc(O)cc1)NC(=O)[C@H](CSCC(=O)O)NC(=O)[C@H](CO)NC(=O)[C@@H](NC(=O)[C@H](Cc1ccccc1)NC(=O)[C@@H](NC(=O)CNC(=O)[C@H](CCC(N)=O)NC(=O)[C@@H](N)CO)[C@@H](C)O)[C@@H](C)O)C(C)C)C(=O)N[C@@H](CC(N)=O)C(=O)N[C@H](C(N)=O)[C@@H](C)O`: the half-maximal inhibitory concentration (IC50) was 13 nM.

For `CSCC[C@H](NC(=O)[C@H](CC(C)C)NC(=O)[C@H](Cc1c[nH]c2ccccc12)NC(=O)[C@H](CCC(N)=O)NC(=O)[C@@H](NC(=O)[C@H](Cc1ccccc1)NC(=O)[C@H](CC(=O)O)NC(=O)[C@H](CCC(N)=O)NC(=O)[C@H](C)NC(=O)[C@H](CCCNC(=N)N)NC(=O)[C@H](CCCNC(=N)N)NC(=O)[C@H](CO)NC(=O)[C@H](CC(=O)O)NC(=O)[C@H](CC(C)C)NC(=O)[C@H](Cc1ccc(O)cc1)NC(=O)[C@H](CCCCN)NC(=O)[C@H](CO)NC(=O)[C@H](Cc1ccc(O)cc1)NC(=O)[C@H](CCC(=O)O)NC(=O)[C@H](CO)NC(=O)[C@@H](NC(=O)[C@@H](O)Cc1ccccc1)[C@@H](C)O)C(C)C)C(=O)N[C@@H](CC(N)=O)C(=O)N[C@H](C(N)=O)[C@@H](C)O` (HELM PEPTIDE1{[O=C([C@@H](O)Cc1ccccc1)[*:2]].T.S.E.Y.S.K.Y.L.D.S.R.R.A.Q.D.F.V.Q.W.L.M.N.T.[am]}$$$$V2.0), the IC50 was 12 nM.
